Measured values from ChEMBL document CHEMBL5150076, “Discovery of Novel Orally Bioavailable Triazoles with Potent and Broad-Spectrum Antifungal Activity In Vitro and In Vivo” (J Med Chem, 2022).
Values after ≈ are worked out from the molar mass of the structure shown.

Experiments:
Cryptococcus neoformans [1] = assay: Antifungal activity against Cryptococcus neoformans H99 incubated for 72 hrs by microbroth dilution method; type: functional
Candida albicans [2] = assay: Antifungal activity against Candida albicans SC5314 incubated for 24 hrs by microbroth dilution method; type: functional
Trichophyton rubrum = assay: Antifungal activity against Trichophyton rubrum cmccftla; type: functional
Nannizzia gypsea = assay: Antifungal activity against Microsporum gypseum; type: functional
[Candida] auris = Antifungal activity against Candida auris 887; type: functional; conditions: Candidozyma auris
Candida albicans [3] = assay: Inhibition of biofilm formation in Candida albicans SC5314 at 0.5 ug/ml relative to control; type: functional
[4] = target: T1, Lanosterol 14-alpha demethylase (Candida albicans (strain SC5314 / ATCC MYA-2876) (Yeast), UniProt P10613); assay: Inhibition of CYP51 in Candida albicans SC5314 assessed as ergosterol level at 0.0625 ug/ml measured after 12 hrs by GC-MS analysis (reference value: 72.58%); design: scale not given: the % may be the effect or the level left; conditions: dose 0.0625 µg/ml
[5] = target: T1, Lanosterol 14-alpha demethylase; assay: Inhibition of CYP51 in Candida albicans SC5314 assessed as sterol level at 0.0625 ug/ml measured after 12 hrs by GC-MS analysis (reference value: 25.23%); design: scale not given: the % may be the effect or the level left; conditions: dose 0.0625 µg/ml
[6] = Tmax in Sprague-Dawley rat at 5 mg/kg, po by LC-MS analysis; type: ADME, organism-based; conditions: in vivo
Cryptococcus neoformans [7] = assay: Antifungal activity against Cryptococcus neoformans H99 infected in ICR mouse assessed as median survival time at 2 mg/kg, po qd infected with fungus for 2 hrs prior to compound addition for 7 days and measured for 20 days; type: functional; conditions: time 20 day
Cryptococcus neoformans [8] = assay: Antifungal activity against Cryptococcus neoformans H99 infected in ICR mouse assessed as median survival time at 5 mg/kg, po qd infected with fungus for 2 hrs prior to compound addition for 7 days and measured for 20 days; type: functional; conditions: time 20 day
Aspergillus fumigatus [9] = assay: Antifungal activity against Aspergillus fumigatus 7544 infected in ICR mouse assessed as survival rate at 20 mg/kg, po qd infected with fungus for 2 hrs prior to compound addition for 7 days and measured for 20 days; type: functional; conditions: time 20 day
Aspergillus fumigatus [10] = assay: Antifungal activity against Aspergillus fumigatus 7544 infected in ICR mouse assessed as survival rate at 60 mg/kg, po qd infected with fungus for 2 hrs prior to compound addition for 7 days and measured for 20 days; type: functional; conditions: time 20 day
[11] = Induction of hemolysis in rabbit RBC at 64 ug/ml incubated for 1 hr; type: toxicity, cell-based, Oryctolagus cuniculus, Erythrocyte; conditions: red blood cells, dose 64 µg/ml, read-out: Activity

T1 sequence (P10613 whole entry): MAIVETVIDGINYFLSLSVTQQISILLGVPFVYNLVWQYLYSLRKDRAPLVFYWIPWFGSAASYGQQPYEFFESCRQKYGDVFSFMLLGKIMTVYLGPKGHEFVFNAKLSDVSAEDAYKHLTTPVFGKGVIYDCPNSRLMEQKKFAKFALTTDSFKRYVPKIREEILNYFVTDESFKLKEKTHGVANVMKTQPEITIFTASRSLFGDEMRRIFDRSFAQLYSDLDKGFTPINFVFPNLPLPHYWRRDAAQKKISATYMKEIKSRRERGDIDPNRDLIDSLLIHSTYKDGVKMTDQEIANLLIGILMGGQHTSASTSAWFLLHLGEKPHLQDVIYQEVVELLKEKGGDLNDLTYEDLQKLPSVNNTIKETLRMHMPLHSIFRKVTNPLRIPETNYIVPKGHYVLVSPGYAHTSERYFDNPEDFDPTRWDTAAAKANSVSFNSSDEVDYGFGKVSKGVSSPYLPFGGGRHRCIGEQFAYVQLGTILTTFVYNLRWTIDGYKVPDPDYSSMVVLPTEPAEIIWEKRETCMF

Structure (SMILES): C[C@@H](c1cn(-c2ccc(Cl)cc2F)nn1)[C@](O)(Cn1cncn1)c1ccc(F)cc1F
- MIC (Cryptococcus neoformans [1]): 0.0313 µg/mL (≈ 0.0697 µM)
- MIC (Candida albicans [2]): 0.0625 µg/mL (≈ 0.139 µM)
- MIC (Trichophyton rubrum): 0.125 µg/mL (≈ 0.278 µM)
- MIC (Nannizzia gypsea): 1 µg/mL (≈ 2.23 µM)
- MIC ([Candida] auris): 1 µg/mL (≈ 2.23 µM)
- inhibition at 0.5 µg/mL (Candida albicans [3]): 80%
- Activity [4]: 0.76%
- Activity [5]: 3.82%
- Tmax [6]: 2.71 h
- Time (Cryptococcus neoformans [7]): 8.5 days
- Time (Cryptococcus neoformans [8]): 18 days
- Activity (Aspergillus fumigatus [9]): 30%
- Activity (Aspergillus fumigatus [10]): 100%
- hemolysis at 1 h, 64 ug/ml [11]: 0.3%
